Reference: PMC9848300, “Discovery of novel enasidenib analogues targeting inhibition of mutant isocitrate dehydrogenase 2 as antileukaemic agents” (Journal of Enzyme Inhibition and Medicinal Chemistry, 2023)
Like-named read-outs stand apart in the source and are kept apart here.

Experiments:
Type in all cases: cell-based
[1] = system: MDA-MB-435; assay: NCI 60 antitumor screening (single dose / five doses); settings: Homo sapiens
[2] = system: SK-MEL-2; assay: as above; settings: Homo sapiens
[3] = system: SR; assay: as above; settings: Homo sapiens; for inhibition at 10 µM: read-out: Growth inhibition percentage (GI %)
[4] = system: HCT-116; assay: as above; settings: Homo sapiens
[5] = system: SF-268; assay: NCI 60 antitumor screening (single dose); settings: Homo sapiens; SF-268 (CNS cancer), single dose 10 μM; read-out: Growth inhibition percentage (GI %)
Protocol: (§1) Initially, the anticancer effects of target compounds have been assessed at a single (10 μM) dose. The obtained data have been reported as mean-graph of the percent growth (G%) of the treated cancer cells. Percentage growth inhibition (GI%) is calculated (100 − G%) and pronounced in Table 1. […] Target compounds in series (III) with manipulated linkers disclosed lower potency. Superiorly, eight s-triazine derivatives from the three series (6a, 6c, 6d, 7a, 7g, 7i, 7l, and 8b) have shown potent broad-spectrum anticancer activity against most the examined cell lines, whereas most of the remaining triazine derivatives, 20 derivatives, have exerted selective anti-proliferative actions towards certain cancer cell lines (Supplementary).
(§2) The antitumor screening was performed for 60 human cancer cell lines under the protocol of NCI (www.dtp.nci.nih.gov), the Drug Evaluation Branch, Bethesda, MD. All submitted compounds were nominated based on the degree of structural diversity and computer modelling techniques for evaluation of their anticancer activity. The screening process for antineoplastic activity passes through two successive levels, starting with the assessment of target compounds at a single dose of 10 μM against 60 cancer cell lines on nine types of human tumours. These experiments were done on a triplicate following. The output from the single‐dose screening was covered as a mean graph, and then, analysed by the COMPARE program. Finally, the compounds which disclosed subpanel cancer cell growth (G %) equal to or less than 10% in at least eight cancer cell lines get to pass the assessment against the 60 cell lines at five doses (0.01–100 μM). By using GraphPad Prism version 9.0 (Graphpad Software Inc., La Jolla, CA), GI50, TGI, as well as LC50 dose‐response parameters were computed and presented for each compound (Supplementary information)[55–57].

[6] = system: SNB-19; assay: NCI 60 antitumor screening (single dose); settings: Homo sapiens; SNB-19 (CNS cancer), single dose 10 μM; read-out: Growth inhibition percentage (GI %)
Protocol: as §1, §2

[7] = system: KM 12; assay: NCI 60 antitumor screening (single dose); settings: Homo sapiens, KM12; KM 12 (colon cancer), single dose 10 μM; read-out: Growth inhibition percentage (GI %)
Protocol: as §1, §2

[8] = system: CAKI-1; assay: NCI 60 antitumor screening (single dose); settings: Homo sapiens; CAKI-1 (renal cancer), single dose 10 μM; read-out: Growth inhibition percentage (GI %)
Protocol: as §1, §2

[9] = system: MCF7; assay: NCI 60 antitumor screening (single dose); settings: Homo sapiens; MCF7 (breast cancer), single dose 10 μM; read-out: Growth inhibition percentage (GI %)
Protocol: as §1, §2

[10] = system: NCI-H226; assay: NCI 60 antitumor screening (single dose); settings: Homo sapiens; NCI-H226 (non-small cell lung cancer), single dose 10 μM; read-out: Growth inhibition percentage (GI %)
Protocol: as §1, §2

[11] = system: NCI-H522; assay: NCI 60 antitumor screening (single dose); settings: Homo sapiens; NCI-H522 (non-small cell lung cancer), single dose 10 μM; read-out: Growth inhibition percentage (GI %)
Protocol: as §1, §2

[12] = system: OVCAR-4; assay: NCI 60 antitumor screening (single dose); settings: Homo sapiens; OVCAR-4 (ovarian cancer), single dose 10 μM; read-out: Growth inhibition percentage (GI %)
Protocol: as §1, §2

[13] = system: M14; assay: NCI 60 antitumor screening (single dose); settings: Homo sapiens; M14 (melanoma), single dose 10 μM; read-out: Growth inhibition percentage (GI %)
Protocol: as §1, §2

[14] = system: SK-OV-3; assay: NCI 60 antitumor screening (single dose); settings: Homo sapiens; SK-OV-3 (ovarian cancer), single dose 10 μM; read-out: Growth inhibition percentage (GI %)
Protocol: as §1, §2

[15] = system: A549/ATCC; assay: NCI 60 antitumor screening (single dose); settings: Homo sapiens; A549/ATCC (non-small cell lung cancer), single dose 10 μM; read-out: Growth inhibition percentage (GI %)
Protocol: as §1, §2

[16] = system: NCI-H23; assay: NCI 60 antitumor screening (single dose); settings: Homo sapiens; NCI-H23 (non-small cell lung cancer), single dose 10 μM; read-out: Growth inhibition percentage (GI %)
Protocol: as §1, §2

[17] = system: OVCAR-5; assay: NCI 60 antitumor screening (single dose); settings: Homo sapiens; OVCAR-5 (ovarian cancer), single dose 10 μM; read-out: Growth inhibition percentage (GI %)
Protocol: as §1, §2

[18] = system: OVCAR-3; assay: NCI 60 antitumor screening (single dose); settings: Homo sapiens; OVCAR-3 (ovarian cancer), single dose 10 μM; read-out: Growth inhibition percentage (GI %)
Protocol: as §1, §2

[19] = system: NCI-H322M; assay: NCI 60 antitumor screening (single dose); settings: Homo sapiens; NCI-H322M (non-small cell lung cancer), single dose 10 μM; read-out: Growth inhibition percentage (GI %)
Protocol: as §1, §2

[20] = system: U251; assay: NCI 60 antitumor screening (single dose); settings: Homo sapiens, U-251; U251 (CNS cancer), single dose 10 μM; read-out: Growth inhibition percentage (GI %)
Protocol: as §1, §2

[21] = system: HS 578T; assay: NCI 60 antitumor screening (single dose); settings: Homo sapiens; HS 578T (breast cancer), single dose 10 μM; read-out: Growth inhibition percentage (GI %)
Protocol: as §1, §2

[22] = system: MALME-3M; assay: NCI 60 antitumor screening (single dose / five doses); settings: Homo sapiens; for inhibition at 10 µM: read-out: Growth inhibition percentage (GI %)
[23] = system: DU-145; assay: as above; settings: Homo sapiens
[24] = system: SK-MEL-28; assay: as above; settings: Homo sapiens
[25] = system: 60 human subpanel cancer cell lines; assay: NCI 60 antitumor screening, mean over the panel (single dose); settings: mean over 60 cancer cell lines, single dose 10 μM
Protocol: as §1, §2

[26] = system: T-47D; assay: NCI 60 antitumor screening (single dose / five doses); settings: Homo sapiens, T47D; for inhibition at 10 µM: read-out: Growth inhibition percentage (GI %)
[27] = system: SF-539; assay: as above; settings: Homo sapiens
[28] = MDA-MB-435 (melanoma), single dose 10 μM, read-out: Growth inhibition percentage (GI %)
[29] = SK-MEL-2 (melanoma), single dose 10 μM, read-out: Growth inhibition percentage (GI %)
[30] = SR (leukaemia), single dose 10 μM
[31] = HCT-116 (colon cancer), single dose 10 μM, read-out: Growth inhibition percentage (GI %)
[32] = MALME-3M (melanoma), single dose 10 μM
[33] = DU-145 (prostate cancer), single dose 10 μM, read-out: Growth inhibition percentage (GI %)
[34] = SK-MEL-28 (melanoma), single dose 10 μM, read-out: Growth inhibition percentage (GI %)
[35] = T-47D (breast cancer), single dose 10 μM
[36] = SF-539 (CNS cancer), single dose 10 μM, read-out: Growth inhibition percentage (GI %)

| Compound | inhibition at 10 µM [1, 28] [%] | inhibition at 10 µM [2, 29] [%] | inhibition at 10 µM [5] [%] | inhibition at 10 µM [6] [%] | inhibition at 10 µM [7] [%] | inhibition at 10 µM [8] [%] | inhibition at 10 µM [9] [%] | inhibition at 10 µM [10] [%] | inhibition at 10 µM [11] [%] | inhibition at 10 µM [12] [%] | inhibition at 10 µM [13] [%] | inhibition at 10 µM [14] [%] | inhibition at 10 µM [15] [%] | inhibition at 10 µM [16] [%] | inhibition at 10 µM [17] [%] | inhibition at 10 µM [18] [%] | inhibition at 10 µM [19] [%] | inhibition at 10 µM [20] [%] | inhibition at 10 µM [21] [%] | Mean GI % [25] [%] | further results |
| --- | --- | --- | --- | --- | --- | --- | --- | --- | --- | --- | --- | --- | --- | --- | --- | --- | --- | --- | --- | --- | --- |
| Clc1cccc(/C=N/Nc2nc(N/N=C/c3cccc(Cl)c3Cl)nc(N3CCOCC3)n2)c1Cl [compound 6h, 2,4-Bis[(E)-2-[(2,3-Dichlorophenyl)methylidene]hydrazin-1-yl]-6-(morpholin-4-yl)-1,3,5-triazine] | -6.86 | 13.8 | 13 | 12.3 | 8.19 | -1.35 | 25.1 | 14.6 | 21.4 | 3.18 | -4.08 | -15.1 | 3.4 | 25.5 | -10.2 | -2.72 | 11.9 | 21 | -8.95 | 9.97 | inhibition at 10 µM [3, 30]: 51.9%; inhibition at 10 µM [4, 31]: 19.3%; inhibition at 10 µM [22, 32]: 2.72%; inhibition at 10 µM [23, 33]: -2.63%; inhibition at 10 µM [24, 34]: 2.23%; inhibition at 10 µM [26, 35]: 44.7%; inhibition at 10 µM [27, 36]: 44.2% |
| Brc1cccc(/C=N/Nc2nc(N/N=C/c3cccc(Br)c3)nc(N3CCOCC3)n2)c1 [compound 6c, 2,4-Bis[(E)-2-[(3-bromophenyl)methylidene]hydrazin-1-yl]-6-(morpholin-4-yl)-1,3,5-triazine] | 66.6 | 97.4 | 31.6 | 22.1 | 69.7 | 84.6 | 77.9 | 56.7 | 66.5 | 45.8 | 68.3 | 7.13 | 57.4 | 56.9 | 27.6 | 57.5 | 47.2 | 57.3 | 33.8 | 66 | GI50 ([2]; SK-MEL-2, five doses (0.01–100 μM)): 2430 nM; inhibition at 10 µM [3, 30]: 92.1%; GI50 ([3]; SR, five doses (0.01–100 μM), read-out: GI50): 160 nM; inhibition at 10 µM [4, 31]: 78.8%; GI50 ([4]; HCT-116, five doses (0.01–100 μM), read-out: GI50): 780 nM; inhibition at 10 µM [22, 32]: 154%; GI50 ([22]; MALME-3M, five doses (0.01–100 μM), read-out: GI50): 1880 nM; inhibition at 10 µM [23, 33]: 72.7%; GI50 ([23]; DU-145, five doses (0.01–100 μM), read-out: GI50): 1310 nM; inhibition at 10 µM [24, 34]: 82.9%; inhibition at 10 µM [26, 35]: 43.5%; GI50 ([26]; T-47D, five doses (0.01–100 μM), read-out: GI50): 3940 nM; inhibition at 10 µM [27, 36]: 43.6%; GI50 ([27]; SF-539, five doses (0.01–100 μM), read-out: GI50): 3830 nM |
| C/C(=N\Nc1nc(N/N=C(\C)c2ccc([N+](=O)[O-])cc2)nc(N2CCOCC2)n1)c1ccc([N+](=O)[O-])cc1 [compound 8a, 2-(Morpholin-4-yl)-4,6-bis[(E)-2-[1–(4-nitrophenyl)ethylidene]hydrazin-1-yl]-1,3,5-triazine] | – | – | 3.96 | 36.9 | 17.9 | 30.8 | 25.9 | 58.1 | 38.3 | 22.4 | 25.5 | -13 | 26.1 | 42.1 | 4.46 | 11.6 | 13.3 | 7.36 | 21.3 | 23.27 | inhibition at 10 µM ([1]; MDA-MB-435, read-out: Growth inhibition percentage (GI %)): 15%; inhibition at 10 µM ([2]; SK-MEL-2, read-out: Growth inhibition percentage (GI %)): 3.61%; inhibition at 10 µM ([3]; SR): -13.1%; inhibition at 10 µM ([4]; HCT-116, read-out: Growth inhibition percentage (GI %)): 29.4%; inhibition at 10 µM ([22]; Malme-3M): 30.6%; inhibition at 10 µM ([23]; DU-145, read-out: Growth inhibition percentage (GI %)): 19%; inhibition at 10 µM ([24]; SK-MEL-28, read-out: Growth inhibition percentage (GI %)): 16.2%; inhibition at 10 µM [26]: 45.1%; inhibition at 10 µM ([27]; SF-539, read-out: Growth inhibition percentage (GI %)): 84.5% |
